Reference: ChEMBL document CHEMBL5715952 (Oncotarget, 2015)
pIC50: −log10 of the molar value.

Columns and labels:
[1] = Inhibition of MET/VEGFR/Tie2 in Melphalan Resistant human RPMI-8226 cells assessed as reduction of cell growth incubated for 72 hrs by CellTiter 96 aqueous one solution cell proliferation assay; assay type: cell-based; details: Melphalan-resistant RPMI-8226 cell
[2] = Ratio of IC50 for inhibition of MET/VEGFR/Tie2 in human RPMI-8226 cells assessed as reduction of cell viability to IC50 for inhibition of MET/VEGFR/Tie2 in human melphalan-resistant RPMI-8226 cells assessed as reduction of cell viability; details: time 72 hrs; condition multiple myeloma
[3] = Inhibition of MET/VEGFR/Tie2 in bortezomib Resistant human RPMI-8226 cells assessed as reduction of cell growth incubated for 72 hrs by CellTiter 96 aqueous one solution cell proliferation assay; assay type: cell-based; details: Bortezomib-resistant RPMI-8226, 72 h
[4] = Inhibition of MET/VEGFR/Tie2 in human U-266 cells assessed as reduction of cell growth incubated for 72 hrs by CellTiter 96 aqueous one solution cell proliferation assay; assay type: cell-based; details: U-266, 72 h
[5] = Inhibition of MET/VEGFR/Tie2 in human RPMI-8226 cells assessed as reduction of cell growth incubated for 72 hrs by CellTiter 96 aqueous one solution cell proliferation assay; assay type: cell-based; details: RPMI-8226, 72 h
[6] = Ratio of IC50 for inhibition of MET/VEGFR/Tie2 in human RPMI-8226 cells assessed as reduction of cell viability to IC50 for inhibition of MET/VEGFR/Tie2 in human RPMI-8226/BR resistant cells assessed as reduction of cell viability; details: condition multiple myeloma
[7] = Inhibition of MET/VEGFR/Tie2 in human ANBL-6 cells assessed as reduction of cell growth incubated for 72 hrs by CellTiter 96 aqueous one solution cell proliferation assay; assay type: cell-based; details: ANBL-6, 72 h
[8] = Inhibition of MET/VEGFR/Tie2 in human bortezomib-resistant ANBL6 cells assessed as reduction of cell growth incubated for 72 hrs by CellTiter 96 aqueous one solution cell proliferation assay; assay type: cell-based
[9] = Ratio of IC50 for inhibition of MET/VEGFR/Tie2 in human ANBL6 cells assessed as reduction of cell viability to IC50 for inhibition of MET/VEGFR/Tie2 in human ANBL6/BR resistant cells assessed as reduction of cell viability; details: condition multiple myeloma
[10] = cells; details: Homo sapiens, ANBL-6, 72 h
[11] = cells; details: Homo sapiens, U-266, 72 h
[12] = Ratio of IC50 for inhibition of PI3K/mTOR in human RPMI-8226 cells assessed as reduction of cell viability to IC50 for inhibition of PI3K/mTOR in human melphalan-resistant RPMI-8226 cells assessed as reduction of cell viability; details: time 72 hrs; condition multiple myeloma
[13] = cells; details: Homo sapiens, Melphalan-resistant RPMI-8226 cell, 72 h
[14] = Ratio of IC50 for inhibition of PI3K/mTOR in human RPMI-8226 cells assessed as reduction of cell viability to IC50 for inhibition of PI3K/mTOR in human RPMI-8226/BR resistant cells assessed as reduction of cell viability; details: condition multiple myeloma
[15] = cells; details: Homo sapiens, RPMI-8226, 72 h
[16] = Ratio of IC50 for inhibition of PI3K/mTOR in human ANBL6 cells assessed as reduction of cell viability to IC50 for inhibition of PI3K/mTOR in human ANBL6/BR resistant cells assessed as reduction of cell viability; details: condition multiple myeloma
[17] = cells; details: Homo sapiens, Bortezomib-resistant ANBL6 cell, 72 h
[18] = cells; details: Homo sapiens, Bortezomib-resistant RPMI-8226, 72 h
[19] = Inhibition of MEK/MAPK in human RPMI-8226 cells assessed as reduction of cell growth incubated for 72 hrs by CellTiter 96 aqueous one solution cell proliferation assay; assay type: cell-based; details: RPMI-8226, 72 h
[20] = Inhibition of MEK/MAPK in bortezomib Resistant human RPMI-8226 cells assessed as reduction of cell growth incubated for 72 hrs by CellTiter 96 aqueous one solution cell proliferation assay; assay type: cell-based; details: Bortezomib-resistant RPMI-8226, 72 h
[21] = Ratio of IC50 for inhibition of MEK/MAPK in human RPMI-8226 cells assessed as reduction of cell viability to IC50 for inhibition of MEK/MAPK in human RPMI-8226/BR resistant cells assessed as reduction of cell viability; details: condition multiple myeloma
[22] = Ratio of IC50 for inhibition of MEK/MAPK in human RPMI-8226 cells assessed as reduction of cell viability to IC50 for inhibition of MEK/MAPK in human melphalan-resistant RPMI-8226 cells assessed as reduction of cell viability; details: time 72 hrs; condition multiple myeloma
[23] = Inhibition of MEK/MAPK in human bortezomib-resistant ANBL6 cells assessed as reduction of cell growth incubated for 72 hrs by CellTiter 96 aqueous one solution cell proliferation assay; assay type: cell-based
[24] = Ratio of IC50 for inhibition of MEK/MAPK in human ANBL6 cells assessed as reduction of cell viability to IC50 for inhibition of MEK/MAPK in human ANBL6/BR resistant cells assessed as reduction of cell viability; details: condition multiple myeloma
[25] = Inhibition of MEK/MAPK in human ANBL-6 cells assessed as reduction of cell growth incubated for 72 hrs by CellTiter 96 aqueous one solution cell proliferation assay; assay type: cell-based; details: ANBL-6, 72 h
[26] = Inhibition of MEK/MAPK in melphalan-resistant human RPMI-8226 cells assessed as reduction of cell growth incubated for 72 hrs by CellTiter 96 aqueous one solution cell proliferation assay; assay type: cell-based; details: Melphalan-resistant RPMI-8226 cell
[27] = Inhibition of MEK/MAPK in human U-266 cells assessed as reduction of cell growth incubated for 72 hrs by CellTiter 96 aqueous one solution cell proliferation assay; assay type: cell-based; details: U-266, 72 h
[28] = cells; details: Homo sapiens, RPMI-8226, 72 h; remark: listed apart in the source
[29] = cells; details: Homo sapiens, Bortezomib-resistant RPMI-8226, 72 h; remark: listed apart in the source
[30] = Ratio of IC50 for inhibition of BCR-ABL/KIT/LCK/EPHA/DDR in human RPMI-8226 cells assessed as reduction of cell viability to IC50 for inhibition of BCR-ABL/KIT/LCK/EPHA/DDR in human RPMI-8226/BR resistant cells assessed as reduction of cell viability; details: condition multiple myeloma
[31] = cells; details: Homo sapiens, U-266, 72 h; remark: listed apart in the source
[32] = cells; details: Homo sapiens, ANBL-6, 72 h; remark: listed apart in the source
[33] = Ratio of IC50 for inhibition of BCR-ABL/KIT/LCK/EPHA/DDR in human ANBL6 cells assessed as reduction of cell viability to IC50 for inhibition of BCR-ABL/KIT/LCK/EPHA/DDR in human ANBL6/BR resistant cells assessed as reduction of cell viability; details: condition multiple myeloma
[34] = cells; details: Homo sapiens, Bortezomib-resistant ANBL6 cell, 72 h; remark: listed apart in the source
[35] = Ratio of IC50 for inhibition of BCR-ABL/KIT/LCK/EPHA/DDR in human RPMI-8226 cells assessed as reduction of cell viability to IC50 for inhibition of BCR-ABL/KIT/LCK/EPHA/DDR in human melphalan-resistant RPMI-8226 cells assessed as reduction of cell viability; details: time 72 hrs; condition multiple myeloma
[36] = cells; details: Homo sapiens, Melphalan-resistant RPMI-8226 cell, 72 h; remark: listed apart in the source

Question: What does the source list for `Cn1cnc(-c2cc3nccc(Oc4ccc(NC(=S)NC(=O)Cc5ccccc5)cc4F)c3s2)c1`?
Answer: pIC50 [1]: 5.00; Ratio IC50 [2]: 0.9; pIC50 [3]: 5.19; pIC50 [4]: 5.00; pIC50 [5]: 5.05; Ratio IC50 [6]: 1.55; pIC50 [7]: 5.00; pIC50 [8]: 5.03; Ratio IC50 [9]: 1.07

Question: What does the source list for `Cn1c(=O)n(-c2ccc(C(C)(C)C#N)cc2)c2c3cc(-c4cnc5ccccc5c4)ccc3ncc21` [DACTOLISIB]?
Answer: pIC50 [10]: 7.08; pIC50 [11]: 7.25; Ratio IC50 [12]: 0.4; pIC50 [13]: 7.04; Ratio IC50 [14]: 0.45; pIC50 [15]: 7.76; Ratio IC50 [16]: 1.68; pIC50 [17]: 7.31; pIC50 [18]: 7.42

Question: What does the source list for `O=C(NOCC1CC1)c1ccc(F)c(F)c1Nc1ccc(I)cc1Cl` [CI-1040]?
Answer: pIC50 [19]: 5.69; pIC50 [20]: 5.12; Ratio IC50 [21]: 0.27; Ratio IC50 [22]: 0.6; pIC50 [23]: 5.00; Ratio IC50 [24]: 0.81; pIC50 [25]: 5.09; pIC50 [26]: 5.31; pIC50 [27]: 5.29

Question: Which results are given for `Cc1cn(-c2cc(NC(=O)c3ccc(C)c(Nc4nccc(-c5cccnc5)n4)c3)cc(C(F)(F)F)c2)cn1` [NILOTINIB]?
Answer: pIC50 [28]: 5.01; pIC50 [29]: 5.00; Ratio IC50 [30]: 1; pIC50 [31]: 5.00; pIC50 [32]: 5.00; Ratio IC50 [33]: 1; pIC50 [34]: 5.00; Ratio IC50 [35]: 1; pIC50 [36]: 5.00
